From patent US7271148B2, “Inhibition of cellular proteases” (The Board of Regents of The University of Texas System, priority 1999, dated 2007) come the findings set out here.

The subject of assay [1] is p21^cip1 abundance in mock-infected LU cells. The experiment in a line: Western blot of p21cip1 abundance in mock-infected, density-arrested LU cells. It is filed as cell-based, human. The procedure: (§1) Cell culture and growth arrest. LU cells (3) were propagated in Eagle's minimum essential medium containing 10% fetal bovine serum and penicillin (100 units/ml)/streptomycin (100 μg/ml) in a 5% CO2 in air atmosphere. The cells were density-arrested as described previously in detail (18).
(§2) Virus stocks and productive infection. The AD169 strain of HCMV was propagated in LU cells as previously described in detail (6). The infectivity of virus stocks was determined by plaque assay (3). Virus stocks typically had infectivities between 8.0×10^6 and 4.0×10^7 plaque-forming units (PFU)/milliliter. LU cells were infected with HCMV as described in detail by Bresnahan et al. (18). Virus stocks and cell cultures were routinely examined for mycoplasma.
(§3) Western blots. Polyclonal or monoclonal antibody for p21^cip1 was obtained from Santa Cruz Biotechnology, Inc. (Santa Cruz, Calif.). Monoclonal antibodies against m-calpain, μ-calpain or calpastatin were generously provided by Dr. R. I. Mellgren (see also 75). Cells were harvested as described previously (18) by dislodging the cells with a cell lifter in phosphate buffered saline. The cells were collected by sedimentation and lysed in NP-40 lysis buffer [50 mM Tris, pH 7.4, 50 mM NaCl, 0.5% NP-40, and 1 mM NaVO3, 50 mM NaF, 1mM phenylmethylsulfonyl fluoride (PMSF), 1 mM dithiothreitol (DTT), 25 μg/ml trypsin inhibitor, 25 μg/ml aprotinin, 1 mM benzamide, and 25 μg/ml pepstatin A added just before use]. Cellular debris was removed by sedimentation and the supernatant fluids were reserved. The protein concentration was determined by the BCA protein assay (Pierce, Rockford, Ill.). Whole cell extracts (40 μg/lane) were fractionated by SDS-polyacrylamide gel electrophoresis (PAGE), and the polypeptides were transferred to nitrocellulose membranes (Bio-Rad Laboratories, Hercules, Calif.) as described previously (18). Antigen-antibody reactions were detected with the enhanced chemiluminescent assay (Amersham Pharmacia Biotech) following the manufacturer's recommendations.
FIGS. 5 and 6. The effect of MG132, an inhibitor of proteasome degradation, on p21^cip1 abundance in HCMV- or mock-infected, density-arrested LU cells. 5. LU cells were density arrested, as described in Materials and Methods. The cell cultures were HCMV (5 PFU/cell)- or mock-infected and then exposed to selected concentrations of MG132 at 24 hr PI. Cell lysates were prepared at 30 hr PI (i.e., 6 hr after […] treatment), and 40 μg of protein from each lysate was resolved by SDS-PAGE. The proteins were transferred to nitrocellulose and probed with antibodies against p21^cip1. Control, cells cultured in the absence of MG132 or its solvent, DMSO. 0, DMSO solvent control, consisting of cells treated with the same concentration of DMSO (0.1%) present in the cultural fluids containing highest concentration of MG132 (10 μM). 6. Represents the abundance of p21^cip1 after MG132 treatment determined by densitometry of the data illustrated in FIG. 5. The data for mock-infected cells (open bars) were calculated relative to the p21^cip1 abundance in untreated mock-infected cells, while the data for HCMV-infected cells (closed bars) were determined relative to the p21^cip1 abundance in untreated HCMV-infected cells.
FIGS. 7 and 8. […]
At the times indicated in the FIG., whole cell lysates were prepared, and 40 μg of protein from each lysate was analyzed by SDS-PAGE. […]
Background: Immunoblotting shows a protein as a band on a membrane.

The subject of assay [2] is p21^cip1 abundance in HCMV-infected LU cells. The experiment in a line: Western blot of p21cip1 abundance in HCMV-infected, density-arrested LU cells. In kind it is cell-based, human. On the procedure:
as §1, §2
as §3, with “recommendations. […]” for “recommendations.”
FIGS. 9 and 10. The concentration effect of E64d on p21^cip1 abundance in HCMV-infected cells. 9: LU cells were density arrested as described in Materials and Methods. The cells were HCMV (5 PFU/cell) or mock infected, and at 48 hr PI were treated with selected concentrations of E64d. Whole cell lysates were prepared 6 hr later, and 40 μg of protein from each lysate was resolved by SDS-PAGE. The proteins were transferred to nitrocellulose and probed with antibodies to p21^cip1. Mock: mock-infected cells in the absence of drug. Control, untreated HCMV-infected cells. 0, DMSO solvent control, consisting of HCMV-infected cells treated with the same concentration of DMSO solvent (0.1%) contained in the highest concentration of E64d. 10: Represents the abundance of p21^cip1 determined by densitometric analysis of the data in FIG. 9.
FIGS. 11 and 12. The concentration effect of Z-Leu-Leu-H on p21^cip1 abundance in HCMV-infected cells. 11. LU cells were density arrested as described in Materials and Methods. The cells were HCMV (5 PFU/cell) infected, and at 48 hr PI were treated with selected concentrations of Z-Leu-Leu-H. Whole cell lysates were prepared 6 hr later, and 40 μg of protein from each lysate was resolved by SDS-PAGE. The proteins were transferred to nitrocellulose and probed with antibodies to p21^cip1. Mock, Control, and 0 are defined as in the legend to FIG. 9. 12 : Represents the abundance of p21^cip1 determined by densitometric analysis of the data in FIG. 11.
FIGS. 13 and 14. The time course for the effect of E64d on p21^cip1 abundance in HCMV-infected, density-arrested cells. 13: LU cells were density arrested, as described in Materials and Methods. The cells were HCMV (5 PFU/cell) or mock infected, and at the intervals indicated in the Fig., beginning 1 hr after infection, subsets of the cells were treated with E64d (100 μM). […]

Where a SMILES comes first, the peptide text is derived from it. The star is where a group is joined. Cbz = O=C(OCc1ccccc1)*

In the case of `CC(C)C[C@@H](C=O)NC(=O)[C@H](CC(C)C)NC(=O)[C@H](CC(C)C)NC(=O)OCc1ccccc1` [MG132] (Cbz-Leu-Leu-Leu-aldehyde), the “increase in p21^cip1 abundance relative to DMSO solvent control or cells in the absence of any chemical” value in assay [1] (MG132 10 μM, mock-infected density-arrested LU cells, densitometry of Western blot (FIGS. 5 and 6)) is on record as 3.6 fold. In addition, the “slope of the concentration effect on p21^cip1 abundance (linear regression analysis)” value in assay [1] (mock-infected cells, MG132 0 to 10 μM, p<0.01) is reported as 0.33; in assay [2] (HCMV-infected cells, MG132 0 to 10 μM, p<0.01), 0.19. The “change in p21^cip1 abundance (in words)” value is reported as “concentration-dependent increase in the abundance of p21^cip1” in assay [1] (mock-infected density-arrested LU cells, MG132 0 to 10 μM) and “smaller increases in p21^cip1 abundance” in assay [2] (HCMV-infected cells, MG132 2.5 μM to 10 μM, compared with mock-infected cells).

`CC(C)CC(C=O)NC(=O)C(CC(C)C)NC(=O)OCc1ccccc1` (stereo not drawn) [Z-Leu-Leu-H]: in assay [2] (100 μM, HCMV-infected cells treated at 48 hr PI, lysates 6 hr later), the “p21^cip1 abundance as % of that measured in mock-infected cells” value is reported as “about 72%”. In addition, the “protection of p21^cip1, concentration effect (in words)” value in assay [2] (HCMV-infected cells treated at 48 hr PI for 6 hr, selected concentrations up to 100 μM) is recorded as “protected p21^cip1 in a concentration-dependent manner”.
